One assay has as its system mouse glioma cell lines. The assay can be described thus: Dose response cell viability, IKE with or without CMD. The format is cell-based. The following applies: 10 uM Ferrostatin-1. From the text: (§1) A basis for the invention that depriving glioma cells of sulfur containing amino acids (cystine and methionine) will result in lower levels of glutathione (which normally protects cells from lipid peroxidation) and therefore would sensitize the glioma cells to ferroptosis inducing drugs. […] Both these effects were rescued by ferrostatin.

The test system of a further assay is MG4 cells. The assay can be described thus: Bodipy-C11 flow cytometry, radiation plus CMD. The format is cell-based, mouse. The following applies: Ferrostatin-1. From the text: (§2) Adherent cells were lifted using TrypLE (ThermoFisher™ Scientific).
Radiation is a known ferroptosis inducer. […] Treatment of both mouse glioma cells (MG1 and MG4) and human GBM cells (TS543) is shown.

Assay [1] relates to MG1 cells. The experiment in a line: Bodipy-C11 flow cytometry, IKE with or without CMD. Conditions: 10 uM Ferrostatin-1. The format is cell-based, mouse.
From the text: as §2, §1

Assay [2] relates to MG1 cells. The experiment in a line: Live cell confocal microscopy of Bodipy-C11 lipid peroxidation. The format is cell-based, mouse. The method, then: 1.3×10^5 MG1 cells were plated on poly-L-lysine coated 35 mm glass-bottom dishes (MatTek™ life sciences) for 24 hours. Cells were incubated for 30 minutes in basal media (DMEM (Gibco™ 11965092) with 0.5% FBS (Gibco™ 16000044), antibiotic-antimycotic (Thermo Scientific™ 15240096), N2 supplement (Thermo Fisher Scientific™, 17502-048), and 10 ng/ml each of recombinant human PDGF-AA (Peprotech, 100-13A) and FGFb (Peprotech™. 10018B50UG)) media containing 5 μM BODIPY-C11. Media were replaced with fresh basal media and cells were imaged on a Nikon™ A1RMP confocal microscope at 37° C. in a humidified chamber with 5% C02. Time-lapse images were acquired using a 40×/1.3 NA oil immersion objective and focus was maintained using the Perfect Focus™ System. Excitation was achieved using 488 nm and 561 nm laser illumination; emission of the oxidized and reduced forms of BODIPY-C11 was captured using a 525/50 and a 595/50 filter, respectively. At time 0, RSL3 (500 nM) or RSL3 (500 nM)+Ferrostatin (2 μM) were added and images were acquired every 30 seconds for a total of 30 minutes. Images were exported to ImageJ™ for analysis.

In assay [3] the test system is human diffuse astrocytoma slice culture. The assay can be described thus: H2DCFDA flow cytometry of human glioma slice cultures, IKE plus radiation. Conditions: 10 μM IKE, 0 or 2 Gy radiation for 24 hours. The format is cell-based. From the text: To further understand the translational relevance of these findings to human glioma samples, an acute organotypic slice culture model was used. […] The tissue was placed on a Millicell™ cell culture insert in treatment media. This media comprised of DMEM+ Hams-F12 without cysteine or methionine (MyBioSource, MBS652871) or DMEM+ Hams-F12 with cysteine and methione to create the to varied conditions that would undergo radiation or IKE treatment.
Horizontal bars indicate H2DCFDA-positive cell populations.

A further assay deals with MG3 cells. The assay can be described thus: 384-well dose-response to GPX4 inhibitors with or without CMD. The format is cell-based, mouse. The following applies: dose response assays, with or without 2 uM Ferrostatin-1. The method, then: (§3) Cell viability was assessed using the Cell-Titer^Glo™ luminescence assay. Murine glioma cells were plated in triplicate at a density of 6,000 cells per well in a 96-well plate (ThermoFisher Scientific™). Twenty-four hours after plating, media was removed and treatment media was added. Viability was assessed 24 hours after treatment. Human glioma cells were plated at a density of 2,000 cells per well. Cells were plated in normal media or cysteine/methionine deprived media. Twenty-four hours after plating, media was changed to begin drug treatment. Forty-eight hours after plating, luminescence was measured.
(§4) Averages across 3 independent experiments are reported. For experiments conducted in 384-well plates, mouse glioma cells were plated at a density of 1,600 cells per well and human glioma cells were plated at a density of 1,000 cells per well. The assays as described above were quantified using Cell-Titer Glo™ (Promega™) ATP based bioluminescence. To determine cell viability, a 50% Cell Titer Glo™ and 50% cell culture medium was added to each well and incubated at room temperature for 10 minutes. Luminescence was assessed on a Promega™ GloMax™ Microplate Reader.

Assay [4] concerns MG1 cells. The experiment in a line: Dose-response of MG1 cells to RSL3 plus cell death inhibitors. The following applies: 5 uM ZVAD-FMK; 2 uM Nec-1s. The format is cell-based, mouse. How it is done: as §3, §4
The subject of assay [5] is human primary glioblastoma. The assay can be described thus: H2DCFDA flow cytometry of ex vivo organotypic slice cultures, RSL3 with or without CMD. Conditions: 100 nM RSL3 plus CMD. Format: cell-based. The method, then: Mice were sacrificed by cervical dislocation.
Slice cultures were dissociated in papain (9.5 mL DPBS, 500 μL papain, 1.67 μL 6 M NaOH, 2 mg L-cysteine, 100 μL DNAse) and incubated in a warm bath shaker at 37° C. for 30 minutes. After centrifugation at 400×g for 5 minutes, the papain was aspirated and slices were resuspended in ice cold PBS and triturated with glass tip Pasteur pipettes. This process was repeated one time and then the cell suspension was resuspended in a 30% sucrose solution and spun at 1000×g for 5 minutes. The cell suspension was resuspended in PBS and stained with Calcein Blue (final concentration 5 μM) and H2DCFDA (final concentration 10 μM), incubated in a water bath at 37° C. for 10 minutes. Suspensions were spun down at 500×g for 5 minutes and resuspended in PBS and taken for flow cytometric analysis on a LSRIII Fortessa™ machine. Cell and Slice culture suspensions were filtered in polystyrene flow tubes (Fisher Scientific™). Data were collected on an LSRIII Fortessa™ flow analyzer and analyzed using FlowJo™ v10.
The slices were treated with RSL3 and assayed via flow cytometry for levels of reactive oxygen species (ROS) using H2DCFDA.

For a further assay, the system named is glioma cell lines. The experiment in a line: Cell viability dose-response to RSL3 (Cell-Titer Glo). Format: cell-based, mouse, human. The method, then:
as §3, §4
To test this, media was adapted for cell culture based on the previous ferroptosis permissive glioma culture methods. […]

Peptide text beside a SMILES is read from it. * marks the point of attachment. Cbz = O=C(OCc1ccccc1)*; CH2F = FC*

Consider `CCOC(=O)c1ccc(NC2CCCCC2)c(N)c1` [Ferrostatin-1], for which the “rescue of CMD enhanced IKE induced cell death” value with mouse glioma cell lines was “rescued”. In addition, the “rescue of lipid peroxidation from radiation plus CMD” value with MG4 cells is “complete rescue”. Further, in the assay on MG1 cells [1], the “rescue of CMD plus IKE lipid peroxidation” value was “rescued”. Further, the “effect on RSL3 induced lipid peroxidation” value in the assay on MG1 cells [2] (500 nM RSL3 and 2 uM Ferrostatin-1) is recorded as “prevented this lipid peroxidation”.

Consider `CC(C)Oc1ccc(C(=O)Cn2ccnc2)cc1-n1c(CN2CCN(C(=O)COc3ccc(Cl)cc3)CC2)nc2ccccc2c1=O` [IKE, imidazole ketone erastin], for which, in assay [3], the “H2DCFDA-positive cells, interaction with radiation” value is reported as “synergy of radiation with IKE treatment”.

As for `Cc1onc(C(=O)N2CCN(C(c3ccc(Cl)cc3)c3ccc(Cl)cc3)CC2)c1[N+](=O)[O-]` [ML-210], the “ferroptosis in combination with CMD” value in the assay on MG3 cells was “synergistic enhancement of ferroptosis with CMD”.

For the molecule `CN1C(=O)NC(Cc2c[nH]c3c(Cl)cccc23)C1=O` (stereo not shown) [Nec-1s], in the assay with MG1 cells [4], the “rescue of RSL3 mediated cell death” value is “not rescuable”.

In the case of `COC(=O)c1ccc([C@@H]2c3[nH]c4ccccc4c3C[C@@H](C(=O)OC)N2C(=O)CCl)cc1` [RSL3], in the assay with MG3 cells, the “ferroptosis in combination with CMD” value is “synergistic enhancement of ferroptosis with CMD”. Further, the “reactive oxygen species (ROS) levels, H2DCFDA” value in assay [5] is “increased ROS to levels equivalent to a high dose of RSL3 (500 nM)”. In the assay with MG1 cells [2] (500 nM RSL3), the “lipid peroxidation (Bodipy-C11 green fluorescence shift)” value is “induction of lipid peroxidation”. Besides, in the assay on glioma cell lines (dose response curves, dual treatment (FIG. 30)), the “cell viability with CMD plus RSL3” value is “stark difference in cell viability with dual treatment”. The “sensitivity to ferroptosis by RSL3” value in the assay with glioma cell lines (five cell lines assayed, 384-well dose-response) is given as “baseline sensitivity to ferroptosis”.

Regarding `COC(=O)C[C@H](NC(=O)[C@H](C)NC(=O)[C@@H](NC(=O)OCc1ccccc1)C(C)C)C(=O)CF` [ZVAD-FMK] (Cbz-Val-Ala-Asp(OMe)-CH2F), the “rescue of RSL3 mediated cell death” value in the assay on MG1 cells [4] is listed as “not rescuable”.

These data come from patent publication US20220211752A1, “METHIONINE AND CYSTEINE DEPRIVATION DIET AND FORMULATIONS TO INCREASE EFFECTIVENESS OF CANCER THERAPY” (THE TRUSTEES OF COLUMBIA UNIVERSITY IN THE CITY OF NEW YORK, priority 2020, published 2022).
